System: human G-CSF-dependent cell strain (BAF/hGCSFR)
Experiment: Induction of cell growth of a human G-CSF-dependent cell strain (WST-1 absorbance), expressed as human-G-CSF equivalent concentration
Type: cell-based
Details: 48 hours incubation, mean±standard error, n=5
Procedure: Cloning of human G-CSF receptor gene was performed through RT-PCR by using primers created on the basis of the human G-CSF receptor gene using a human spleen cDNA library. The thus cloned human G-CSF receptor gene inserted to a multicloning site of an expression vector. Subsequently, the gene-inserted expression vector was transformed into E. coli for multiplication, and the expression vector was extracted. An aliquot of the expression vector (20 μg) was added to host cells (BAF/B03) prepared to 5×10^7 cells/800 μL K-PBS (30.8 mM NaCl, 120.7 mM KCl, 8.1 mM Na2HPO4, 1.46 mM KH2PO4, 5 mM MgCl2), followed by standing still at 4° C. for 15 minutes. For gene transfer, electroporation was performed at a voltage of 280 V and a capacitance of 950 μF. After completion of gene transfer, the cells were suspended in a DMEM medium ((+) 10% FCS) containing recombinant human G-CSF (rhG-CSF, 20 ng/mL) and puromycin (2 μg/mL), whereby a human G-CSF dependent cell strain was created.
For studying the cell multiplication ability with respect to rhG-CSF, the following procedure was carried out. Briefly, cells in which the human G-CSF receptor gene had been inserted (BAF/hGCSFR) were collected, and washed with PBS(−). Subsequently, the cells were suspended in DMEM medium, and the medium containing the cells was prepared to the wells of a 96-well plate (5×10^4 cells/well). Then, rhG-CSF was added to the wells (0, 0.006, 0.025, 0.1, 0.4 ng/mL), and the cells in the wells were cultured under 5% CO2 for 48 hours at 37° C. After completion of incubation, a solution of WST-1/1-methoxy PMS was added to the wells (final concentration: 5 mM), and the cells in the wells were cultured in a CO2 incubator for 2 hours. After completion of incubation, the absorbance of the cultured solution was measured at a wavelength of 450 nm. The results are shown in FIG. 1 (mean±standard error, n=5).
A solution prepared by diluting a compound with DMEM was added to the wells of a 96-well microplate (10 μL/well). The human G-CSF-dependent cell strain was added to the wells (5.0×10^4 cells/100 μL), followed by incubation for 48 hours at 37° C. After completion of incubation, a solution of WST-1/1-methoxy PMS (final concentration: 5 mM) was added to the wells, followed by incubation in a CO2 incubator for 2 hours. After completion of incubation, the absorbance was measured at a wavelength of 450 nm. The results are shown in FIG. 2 (mean±standard error, n=5).
Using the test data obtained from Test Example 1, human-G-CSF equivalent concentrations (ng/mL) corresponding to respective compound concentrations employed in Test Example 2 were calculated. The results are shown in Table 1 (mean±standard error, n=5).

## CCCCCCCCOc1ccc(Cl)cc1C(C)(O)Cn1ccnc1 (stereo not drawn) [Compound (1-3), 2-(5-Chloro-2-(n-octyloxy)phenyl)-1-(1H-1-imidazolyl)-2-propanol]
Compound conc. 10^−6 M
  human-G-CSF equivalent concentration: 0.057 ± 0.0005 ng/mL
Compound conc. 10^−7 M
  human-G-CSF equivalent concentration: 0.057 ± 0.0005 ng/mL
Compound conc. 10^−8 M
  human-G-CSF equivalent concentration: 0.018 ± 0.0001 ng/mL

## CCCCCCCCCOc1ccc(Cl)cc1C(C)(O)Cn1ccnc1 (stereo not drawn) [Compound (1-1), 2-(5-Chloro-2-(n-nonyloxy)phenyl)-1-(1H-1-imidazolyl)-2-propanol]
Compound conc. 10^−6 M
  human-G-CSF equivalent concentration: 0.131 ± 0.001 ng/mL
Compound conc. 10^−7 M
  human-G-CSF equivalent concentration: 0.032 ± 0.0003 ng/mL
Compound conc. 10^−8 M
  human-G-CSF equivalent concentration: 0.015 ± 0.0001 ng/mL

## CCCCCCCOc1ccc(Cl)cc1C(C)(O)Cn1ccnc1 (stereo not drawn) [Compound (1-2), 2-(5-Chloro-2-(n-heptyloxy)phenyl)-1-(1H-1-imidazolyl)-2-propanol]
Compound conc. 10^−6 M
  human-G-CSF equivalent concentration: 0.049 ± 0.0004 ng/mL
Compound conc. 10^−7 M
  human-G-CSF equivalent concentration: 0.037 ± 0.0003 ng/mL
Compound conc. 10^−8 M
  human-G-CSF equivalent concentration: 0.013 ± 0.0001 ng/mL

Reference: patent US6737434B2, “Imidazole derivatives or their salts” (SSP Co., Ltd., priority 2000, dated 2004)
